Laboratory results: publication PMC7801380, “Development of phenotypic assays for identifying novel blockers of L-type calcium channels in neurons” (Scientific Reports, 2021)
Like-named read-outs stand apart in the source and are kept apart here.

How the values were obtained:
[1] = test system: L-type calcium channels (LTCCs); assay: Calcium flux (FLIPR) assay, Bay K8644-induced responses in rat primary cortical cultures; assay type: cell-based; conditions: for Block of Bay K8644-evoked calcium fluorescent response: compound 3 µM
[2] = test system: LTCC currents; assay: Patch clamp, LTCC currents in rat cortical neurons; assay type: cell-based
[3] = molecular target: CaV1.2 (Homo sapiens, UniProt Q13936); assay: in vitro; conditions: pH 7.4
Sequence of CaV1.2 (Q13936 1-2138 isoform Q13936-12): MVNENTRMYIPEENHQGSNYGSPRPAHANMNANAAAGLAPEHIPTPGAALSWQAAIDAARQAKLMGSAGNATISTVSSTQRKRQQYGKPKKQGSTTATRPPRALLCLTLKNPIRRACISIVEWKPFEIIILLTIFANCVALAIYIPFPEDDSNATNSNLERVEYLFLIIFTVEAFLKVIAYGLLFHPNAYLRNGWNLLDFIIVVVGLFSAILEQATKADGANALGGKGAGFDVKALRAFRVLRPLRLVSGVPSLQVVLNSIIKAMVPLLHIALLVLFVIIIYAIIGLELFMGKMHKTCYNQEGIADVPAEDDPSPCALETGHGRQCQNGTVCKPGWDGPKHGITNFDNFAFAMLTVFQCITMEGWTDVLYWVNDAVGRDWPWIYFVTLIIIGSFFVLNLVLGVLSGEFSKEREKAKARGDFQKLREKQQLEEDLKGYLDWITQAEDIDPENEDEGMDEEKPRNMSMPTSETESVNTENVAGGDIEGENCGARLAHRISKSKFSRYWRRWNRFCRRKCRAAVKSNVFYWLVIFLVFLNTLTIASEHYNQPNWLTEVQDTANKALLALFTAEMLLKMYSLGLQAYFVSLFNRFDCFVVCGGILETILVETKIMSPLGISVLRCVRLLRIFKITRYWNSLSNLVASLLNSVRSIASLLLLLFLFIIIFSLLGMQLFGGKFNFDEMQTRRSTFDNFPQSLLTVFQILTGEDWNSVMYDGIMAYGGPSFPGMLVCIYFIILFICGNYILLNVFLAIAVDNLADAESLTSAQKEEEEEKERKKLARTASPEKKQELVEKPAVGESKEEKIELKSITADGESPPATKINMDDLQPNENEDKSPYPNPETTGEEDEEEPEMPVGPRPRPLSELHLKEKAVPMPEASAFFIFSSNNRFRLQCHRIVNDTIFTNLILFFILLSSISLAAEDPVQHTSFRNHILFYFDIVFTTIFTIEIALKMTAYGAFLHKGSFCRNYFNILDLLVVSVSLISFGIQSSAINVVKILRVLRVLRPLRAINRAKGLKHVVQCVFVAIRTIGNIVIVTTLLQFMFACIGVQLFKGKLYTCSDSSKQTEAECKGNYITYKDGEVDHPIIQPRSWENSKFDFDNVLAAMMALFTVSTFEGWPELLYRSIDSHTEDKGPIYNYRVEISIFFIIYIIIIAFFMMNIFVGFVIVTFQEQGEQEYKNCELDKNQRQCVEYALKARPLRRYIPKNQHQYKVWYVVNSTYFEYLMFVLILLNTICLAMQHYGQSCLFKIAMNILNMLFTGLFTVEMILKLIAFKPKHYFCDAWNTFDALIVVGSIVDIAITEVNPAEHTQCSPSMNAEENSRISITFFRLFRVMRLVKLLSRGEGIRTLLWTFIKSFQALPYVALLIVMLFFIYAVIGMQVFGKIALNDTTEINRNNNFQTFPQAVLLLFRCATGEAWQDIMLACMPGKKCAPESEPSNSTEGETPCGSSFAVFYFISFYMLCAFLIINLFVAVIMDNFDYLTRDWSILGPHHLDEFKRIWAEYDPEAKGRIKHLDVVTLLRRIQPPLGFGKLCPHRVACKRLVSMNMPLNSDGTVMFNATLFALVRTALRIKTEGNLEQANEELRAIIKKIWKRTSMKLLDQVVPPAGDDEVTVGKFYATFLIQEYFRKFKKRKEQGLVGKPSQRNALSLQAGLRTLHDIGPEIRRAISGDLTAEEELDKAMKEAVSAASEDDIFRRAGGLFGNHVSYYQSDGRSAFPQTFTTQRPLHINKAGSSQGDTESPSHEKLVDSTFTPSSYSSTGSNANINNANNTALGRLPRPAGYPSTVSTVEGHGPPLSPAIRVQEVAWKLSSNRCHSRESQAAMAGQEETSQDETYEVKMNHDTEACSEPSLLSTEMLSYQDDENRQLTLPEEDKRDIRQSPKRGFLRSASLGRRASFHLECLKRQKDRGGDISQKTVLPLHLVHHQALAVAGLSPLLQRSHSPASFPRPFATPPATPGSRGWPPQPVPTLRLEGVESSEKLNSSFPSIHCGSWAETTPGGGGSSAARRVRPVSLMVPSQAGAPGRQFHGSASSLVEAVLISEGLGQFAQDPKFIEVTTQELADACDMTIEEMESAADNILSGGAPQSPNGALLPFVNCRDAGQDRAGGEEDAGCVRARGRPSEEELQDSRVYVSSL

[4] = molecular target: Phenylalkylamine site; assay: Rat cortex binding, phenylalkylamine site ([3H]D888); conditions: [3H]D888 3 nM
Description: (§1) The in-vitro binding studies were conducted by Eurofins (France) using rat cortex. […] The IC50 values (the concentration that causes half-maximal inhibition of control specific binding) were determined by non-linear regression analysis of the competition curves using Hill equation: Y = […] Y = specific binding, A = left asymptote of the curve, D = right asymptote of the curve, C = compound concentration, and nH = slope factor. Analyses were performed using software developed at Eurofins (Hill software) and validated by comparison with data generated by the commercial software SigmaPlot 4.0. […] KD values were determined from Scatchard plots.

[5] = molecular target: DHP site; assay: Rat cortex binding, DHP site ([3H]nitrendipine); conditions: [3H]nitrendipine 0.1 nM
Description: as §1

[6] = molecular target: Benzothiazepine site; assay: Rat cortex binding, benzothiazepine site ([3H]diltiazem); conditions: [3H]diltiazem 15 nM
Description: as §1

[7] = test system: VGCCs; assay: Calcium fluorescent response to high [K+] in rat cortical cultures; assay type: cell-based; conditions: 100 mM K+, compound 3 µM, holding [K+] 20 mM
[8] = PW library screen hit confirmation, 1.1 µM Bay K8644, holding [K+] 20 mM, read-out: FLIPR IC50 Rat cortical culture
[9] = Vhold/Vtest -50/-20 mV, 300 nM Bay K8644
[10] = Vhold/Vtest -50/-20 mV, 300 nM Bay K8644, read-out: IC50, LTCC currents
[11] = 300 nM Bay K8644, holding [K+] 20 mM, read-out: IC50, inhibition of Bay K-induced responses (calcium flux)

`COC(=O)C1=C(C)NC(C)=C([N+](=O)[O-])C1c1ccccc1C(F)(F)F` (centres unmarked) [Bay K8644] gave an EC50 ([1]; holding [K+] 20 mM, read-out: EC50, activation of LTCCs (calcium flux)) of 204 nM and an EC50 ([2]; Vhold -50 mV, Vtest -20 mV, read-out: EC50, Bay K8644 concentration dependence (patch clamp)) of 40.6 nM.
`COC(=O)C1=C(C)NC(C)=C(C(=O)OC2CCCN(Cc3ccccc3)C2)C1c1cccc([N+](=O)[O-])c1` (centres unmarked) [Benidipine] was tested, and the IC50 [1, 8] was 104 nM.
In the case of `CN1CCC(=C2c3ccccc3C=Cc3ccccc32)CC1` [Cyproheptadine], the “% block of LTCC currents” value ([2]; 3 µM compound, -50/-20 mV, 300 nM Bay K8644) is reported as 75.2 ± 9.1% and the inhibition at 3 µM [3] is reported as 52.3 ± 6.1%.
`COc1ccc(CCN(C)CCCC(C#N)(c2cc(OC)c(OC)c(OC)c2)C(C)C)cc1OC` (centres unmarked) [D600] was tested, and the IC50 ([4]; n = 4, read-out: IC50 positive control, phenylalkylamine site binding) was 26.8 ± 3.6 nM.
In the case of `CCOC(=O)C1=C(C)NC(C)=C(C(=O)OC)C1c1cccc(Cl)c1Cl` (centres unmarked) [Felodipine], the IC50 [1, 8] is reported as 57 nM.
`Fc1ccc(C(OCCN2CCN(CCCc3ccccc3)CC2)c2ccc(F)cc2)cc1` [GBR 12909] showed an IC50 [1, 8] of 680 nM.
`COC(=O)C1=C(C)NC(C)=C(C(=O)OC(C)C)C1c1cccc2nonc12` (centres unmarked) [Isradipine] was tested, and the IC50 [1, 8] was 8 nM.
In the case of `CCOC(=O)C1=C(C)NC(C)=C(C(=O)OCC)C1c1ccccc1/C=C/C(=O)OC(C)(C)C` [Lacidipine], the IC50 [1, 8] is reported as 453 nM.
`COC(=O)C1=C(C)NC(C)=C(C(=O)OCCN(C)Cc2ccccc2)C1c1cccc([N+](=O)[O-])c1` (centres unmarked) [Nicardipine] was tested, and the IC50 [1, 8] was 290 nM.
With `O=C(Nc1ccc([N+](=O)[O-])cc1Cl)c1cc(Cl)ccc1O` [Niclosamide] the IC50 ([1]; PW library screen hit confirmation, 1.1 µM Bay K8644, holding [K+] 20 mM, listed as niclosamide, read-out: FLIPR IC50 Rat cortical culture) was 79.5 ± 12.8 nM, the IC50 [1, 8] was 80 nM and the “maximal % inhibition of LTCC-mediated calcium flux” value ([1]; cortical cultures, n = 3) was 100%. The “max % inhibition of LTCC currents” value [2, 9] was “full efficacy”, the “max % inhibition of LTCC currents” value ([2]; Vhold/Vtest -50/-20 mV, 300 nM Bay K8644, listed as niclosamide) was 100% and the IC50 [2, 10] was 183 ± 28.2 nM. The “20–80% rise time” value ([2]; at -20 mV, in presence of 200 nM compound) was 16.1 ± 3.5 ms, the “Current remaining after 400 ms of depolarization, % of the peak” value ([2]; depolarization to -20 mV, 200 nM compound) was 41.9 ± 7.5% and the Ki ([5]; rat cortical homogenates) was greater than 30000 nM. For the same compound, the Ki ([4]; rat cortical homogenates) was greater than 30000 nM, the Ki ([6]; rat cortical homogenates) was greater than 30000 nM and the inhibition at 0.1 µM [3] was 80.6 ± 4.9%.
In the case of `COC(=O)C1=C(C#N)NC(C)=C(C(=O)OC(C)C)C1c1cccc([N+](=O)[O-])c1` (centres unmarked) [Nilvadipine], the IC50 [1, 8] is reported as 28 nM.
For `COCCOC(=O)C1=C(C)NC(C)=C(C(=O)OC(C)C)C1c1cccc([N+](=O)[O-])c1` (centres unmarked) [Nimodipine], the IC50 [1, 11] was 142 nM, the “Block of Bay K8644-evoked calcium fluorescent response” value ([1]; 1.1 µM Bay K8644, holding [K+] 20 mM) was “completely” and the “Block of Bay K8644-evoked calcium fluorescent response” value ([1]; 1.1 µM Bay K8644, holding [K+] 20 mM, listed as nimodipine) was “completely blocked”. For the same compound, the IC50 [1, 8] was 110 nM, the “Decrease of potency of inhibition by Bay K” value ([2]; IC50 with 300 nM Bay K vs without, -50/-20 mV) was 16.7 fold and the “max % inhibition (fraction of sensitive current)” value ([2]; Vhold/Vtest -50/0 mV, control (no Bay K)) was 85.4 ± 3.7%. For the same compound, the “max % inhibition (fraction of sensitive current)” value ([2]; Vhold/Vtest -50/0 mV, control (no Bay K), listed as nimodipine) was 85%, the IC50 ([2]; Vhold/Vtest -50/0 mV, control (no Bay K), read-out: IC50, patch clamp current) was 28.3 ± 6.5 nM and the “max % inhibition of LTCC currents” value [2, 9] was 99.1 ± 1.1%. The “max % inhibition of LTCC currents” value ([2]; Vhold/Vtest -50/-20 mV, 300 nM Bay K8644, listed as nimodipine) was 99%, the IC50 ([2]; Vhold/Vtest -50/-20 mV, 300 nM Bay K8644, listed as nimodipine, read-out: IC50, LTCC currents) was 415 nM and the IC50 [2, 10] was 401 ± 21.8 nM. The “max % inhibition (fraction of sensitive current)” value ([2]; Vhold/Vtest -50/-20 mV, control (no Bay K)) was 96.1 ± 0.8%, the “max % inhibition (fraction of sensitive current)” value ([2]; Vhold/Vtest -50/-20 mV, control (no Bay K), listed as nimodipine) was 96% and the IC50 ([2]; Vhold/Vtest -50/-20 mV, control (no Bay K), read-out: IC50, patch clamp current) was 24.8 nM. For the same compound, the “max % inhibition (fraction of sensitive current)” value ([2]; Vhold/Vtest -90/0 mV, control (no Bay K)) was 75%, the IC50 ([2]; Vhold/Vtest -90/0 mV, control (no Bay K), read-out: IC50, patch clamp current) was 4800 nM and the “Block of high [K+]-evoked calcium fluorescent response” value [7] was “partially”. The “Block of high [K+]-evoked calcium fluorescent response” value ([7]; listed as nimodipine) was “partially blocked”.
With `CCOC(=O)C1=C(C)NC(C)=C(C(=O)OC)C1c1cccc([N+](=O)[O-])c1` (centres unmarked) [Nitrendipine] the IC50 [1, 8] was 140 nM and the IC50 ([5]; n = 4, read-out: IC50 positive control, DHP site binding) was 0.19 ± 0.03 nM.
`COc1ccc([C@@H]2Sc3ccccc3N(CCN(C)C)C(=O)[C@@H]2OC(C)=O)cc1` [diltiazem] showed an IC50 [1, 11] of 27100 nM and an IC50 ([6]; n = 4, read-out: IC50 positive control, benzothiazepine site binding) of 42.7 ± 6.8 nM.
Work on `CC(NCCC(c1ccccc1)c1ccccc1)c1ccccc1` (centres unmarked) [fendiline] yielded an IC50 [1, 8] of 820 nM.
`O=C1NCN(c2ccccc2)C12CCN(CCCC(c1ccc(F)cc1)c1ccc(F)cc1)CC2` [fluspirilene] was tested, and the IC50 [1, 8] was 760 nM.
`Cc1cccc(C)c1NC(=O)CN1CCN(CCCC(c2ccc(F)cc2)c2ccc(F)cc2)CC1` [lidoflazine] gave an IC50 [1, 8] of 710 nM.
